Values joined by “and” are separate entries in the source; they are usually repeats but may differ in a detail not shown here. Equal values may be shown once.

What all share (assay): radiometric filter-binding kinase assay
Experiment [1] deals with RPS6KA5 KD1 KD2 (human) (UniProt O75582).
For experiment [2], the target named is MARK2 (human) (UniProt Q7KZI7). Conditions: compound 1.0 µM.
Experiment [3] concerns the target PTK6 (human) (UniProt Q13882). Conditions: compound 1.0 µM.
Experiment [4] concerns the target STK33 (human) (UniProt Q9BYT3). Conditions: compound 1.0 µM.
The target in experiment [5] is STK16 (human) (UniProt O75716). The conditions noted are these: compound 1.0 µM.
Sequence of STK16 (human) (O75716 whole entry, looked up): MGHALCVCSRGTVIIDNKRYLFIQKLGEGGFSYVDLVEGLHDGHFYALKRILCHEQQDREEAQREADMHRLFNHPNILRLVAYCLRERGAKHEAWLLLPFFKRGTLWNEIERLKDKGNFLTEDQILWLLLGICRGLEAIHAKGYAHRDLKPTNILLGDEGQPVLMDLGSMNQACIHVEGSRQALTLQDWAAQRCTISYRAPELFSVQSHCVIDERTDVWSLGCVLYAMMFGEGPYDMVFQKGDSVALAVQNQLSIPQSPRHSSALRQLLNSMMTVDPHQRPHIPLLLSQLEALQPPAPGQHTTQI
Experiment [6] concerns the target INSR (human) (UniProt P06213). The conditions noted are these: compound 1.0 µM.
Experiment [7] has as its target MAP3K7 TAB1 (human) (UniProt Q15750+O43318). The conditions noted are these: compound 1.0 µM.
Experiment [8] concerns the target TEK (human) (UniProt Q02763). The conditions noted are these: compound 1.0 µM.
In experiment [9] the target is FLT1 (human) (UniProt P17948). The conditions noted are these: compound 1.0 µM.
In experiment [10] the target is MARK4 (human) (UniProt Q96L34). The conditions noted are these: compound 1.0 µM.
Experiment [11] addresses DAPK1 (human) (UniProt P53355). The conditions noted are these: compound 1.0 µM.
In experiment [12] the target is MAPKAPK3 (human) (UniProt Q16644). The conditions noted are these: compound 1.0 µM.
The target of experiment [13] is IGF1R (human) (UniProt P08069). The conditions noted are these: compound 1.0 µM.
The target in experiment [14] is BRSK1 (human) (UniProt Q8TDC3). The conditions noted are these: compound 1.0 µM.
Experiment [15] has as its target MAPK13 (human) (UniProt O15264). The conditions noted are these: compound 1.0 µM.
Experiment [16] addresses MAP3K5 (human) (UniProt Q99683). The conditions noted are these: compound 1.0 µM.
The subject of experiment [17] is PAK2 (human), Q13177 [T402E]. The conditions noted are these: compound 1.0 µM.
The target of experiment [18] is ERBB4 (human) (UniProt Q15303). The conditions noted are these: compound 1.0 µM.
Experiment [19] addresses JAK2 JH1 JH2 (human) (UniProt O60674). The conditions noted are these: compound 1.0 µM.
Experiment [20] deals with HIPK1 (human) (UniProt Q86Z02). Conditions: compound 1.0 µM.
Experiment [21] has as its target MAP2K2 (human) (UniProt P36507). Conditions: compound 1.0 µM.
Experiment [22] concerns the target EPHA4 (human) (UniProt P54764). Conditions: compound 1.0 µM.
The target of experiment [23] is IRAK4 (human) (UniProt Q9NWZ3). Conditions: compound 1.0 µM.
Experiment [24] concerns the target MAP3K9 (human) (UniProt P80192). Conditions: compound 1.0 µM.
The target in experiment [25] is HIPK3 (human) (UniProt Q9H422). The conditions noted are these: compound 1.0 µM.
Sequence of HIPK3 (human) (Q9H422 whole entry, looked up): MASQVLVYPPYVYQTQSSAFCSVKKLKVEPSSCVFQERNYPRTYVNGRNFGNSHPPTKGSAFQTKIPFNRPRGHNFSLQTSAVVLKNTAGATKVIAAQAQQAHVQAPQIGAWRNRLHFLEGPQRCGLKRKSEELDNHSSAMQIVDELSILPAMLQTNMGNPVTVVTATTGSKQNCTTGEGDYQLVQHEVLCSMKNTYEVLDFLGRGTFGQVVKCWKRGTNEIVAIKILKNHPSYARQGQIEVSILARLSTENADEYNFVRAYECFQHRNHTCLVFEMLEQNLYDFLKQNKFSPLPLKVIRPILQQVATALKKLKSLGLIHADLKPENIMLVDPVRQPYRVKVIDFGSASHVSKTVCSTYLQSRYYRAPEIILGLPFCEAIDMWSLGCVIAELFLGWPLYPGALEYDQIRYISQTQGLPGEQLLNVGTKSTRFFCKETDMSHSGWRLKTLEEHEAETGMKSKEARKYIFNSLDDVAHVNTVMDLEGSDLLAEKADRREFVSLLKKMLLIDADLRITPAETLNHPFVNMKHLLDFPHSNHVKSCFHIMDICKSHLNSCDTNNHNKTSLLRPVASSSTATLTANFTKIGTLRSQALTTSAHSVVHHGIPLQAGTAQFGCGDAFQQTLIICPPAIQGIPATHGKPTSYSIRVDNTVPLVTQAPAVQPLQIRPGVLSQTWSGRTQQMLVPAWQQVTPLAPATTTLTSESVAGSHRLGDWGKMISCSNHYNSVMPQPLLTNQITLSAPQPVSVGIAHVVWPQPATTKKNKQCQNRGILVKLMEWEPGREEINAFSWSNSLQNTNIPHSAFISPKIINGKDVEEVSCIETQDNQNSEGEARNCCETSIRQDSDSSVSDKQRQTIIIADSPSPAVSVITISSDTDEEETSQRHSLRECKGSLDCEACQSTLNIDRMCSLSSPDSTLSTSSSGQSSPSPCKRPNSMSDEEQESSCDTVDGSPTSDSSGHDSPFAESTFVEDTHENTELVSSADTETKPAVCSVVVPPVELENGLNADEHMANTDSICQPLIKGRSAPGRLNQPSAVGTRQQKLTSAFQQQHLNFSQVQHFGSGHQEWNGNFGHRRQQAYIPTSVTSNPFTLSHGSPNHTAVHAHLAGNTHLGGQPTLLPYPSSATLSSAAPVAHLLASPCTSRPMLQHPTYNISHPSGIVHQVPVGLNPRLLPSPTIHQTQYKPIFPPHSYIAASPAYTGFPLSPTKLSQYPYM
Experiment [26] has as its target BTK (human) (UniProt Q06187). The conditions noted are these: compound 1.0 µM.
In experiment [27] the target is EPHB1 (human) (UniProt P54762). The conditions noted are these: compound 1.0 µM.
The target in experiment [28] is TAOK1 (human) (UniProt Q7L7X3). The conditions noted are these: compound 1.0 µM.
In experiment [29] the target is GCK (human) (UniProt Q12851). Conditions: compound 1.0 µM.
Experiment [30] has as its target AURKA (human) (UniProt O14965). Conditions: compound 1.0 µM.
Experiment [31] has as its target NTRK1 (human) (UniProt P04629). Conditions: compound 1.0 µM.
For experiment [32], the target named is MAPK10 (human) (UniProt P53779). Conditions: compound 1.0 µM.
Experiment [33] concerns the target MINK1 (human) (UniProt Q8N4C8). The conditions noted are these: compound 1.0 µM.
The target in experiment [34] is PDPK1 (human) (UniProt O15530). The conditions noted are these: compound 1.0 µM.
Experiment [35] concerns the target DYRK1A (human) (UniProt Q13627). The conditions noted are these: compound 1.0 µM.

Sequence of TEK (human) (Q02763 whole entry, looked up): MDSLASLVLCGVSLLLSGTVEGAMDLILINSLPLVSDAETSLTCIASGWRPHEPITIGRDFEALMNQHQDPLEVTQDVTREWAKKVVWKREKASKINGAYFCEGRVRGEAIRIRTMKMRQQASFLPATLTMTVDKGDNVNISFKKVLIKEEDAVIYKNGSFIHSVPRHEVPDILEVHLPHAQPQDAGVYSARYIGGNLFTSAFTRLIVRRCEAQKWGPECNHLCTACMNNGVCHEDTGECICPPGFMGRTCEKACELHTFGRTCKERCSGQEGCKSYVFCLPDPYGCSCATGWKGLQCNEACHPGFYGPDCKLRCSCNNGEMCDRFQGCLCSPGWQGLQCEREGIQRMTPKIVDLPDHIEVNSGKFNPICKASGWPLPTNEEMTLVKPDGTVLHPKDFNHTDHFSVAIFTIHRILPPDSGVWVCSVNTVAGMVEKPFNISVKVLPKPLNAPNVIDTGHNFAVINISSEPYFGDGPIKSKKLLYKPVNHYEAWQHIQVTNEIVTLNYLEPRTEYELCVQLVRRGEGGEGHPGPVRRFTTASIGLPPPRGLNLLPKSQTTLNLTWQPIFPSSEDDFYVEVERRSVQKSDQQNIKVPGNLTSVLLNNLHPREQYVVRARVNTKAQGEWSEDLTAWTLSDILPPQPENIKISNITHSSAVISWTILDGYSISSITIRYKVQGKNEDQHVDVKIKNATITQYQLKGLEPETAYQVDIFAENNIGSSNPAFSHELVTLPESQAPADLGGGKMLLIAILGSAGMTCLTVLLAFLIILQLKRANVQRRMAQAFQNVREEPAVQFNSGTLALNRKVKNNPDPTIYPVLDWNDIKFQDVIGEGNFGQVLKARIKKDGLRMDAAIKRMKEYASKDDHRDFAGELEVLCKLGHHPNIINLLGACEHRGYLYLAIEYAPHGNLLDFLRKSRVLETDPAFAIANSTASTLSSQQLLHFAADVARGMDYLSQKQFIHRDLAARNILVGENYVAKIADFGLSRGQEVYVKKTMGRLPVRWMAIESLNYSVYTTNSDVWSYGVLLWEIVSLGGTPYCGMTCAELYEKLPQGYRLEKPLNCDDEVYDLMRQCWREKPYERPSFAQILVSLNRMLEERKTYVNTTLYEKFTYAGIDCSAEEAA
Sequence of PTK6 (human) (Q13882 whole entry, looked up): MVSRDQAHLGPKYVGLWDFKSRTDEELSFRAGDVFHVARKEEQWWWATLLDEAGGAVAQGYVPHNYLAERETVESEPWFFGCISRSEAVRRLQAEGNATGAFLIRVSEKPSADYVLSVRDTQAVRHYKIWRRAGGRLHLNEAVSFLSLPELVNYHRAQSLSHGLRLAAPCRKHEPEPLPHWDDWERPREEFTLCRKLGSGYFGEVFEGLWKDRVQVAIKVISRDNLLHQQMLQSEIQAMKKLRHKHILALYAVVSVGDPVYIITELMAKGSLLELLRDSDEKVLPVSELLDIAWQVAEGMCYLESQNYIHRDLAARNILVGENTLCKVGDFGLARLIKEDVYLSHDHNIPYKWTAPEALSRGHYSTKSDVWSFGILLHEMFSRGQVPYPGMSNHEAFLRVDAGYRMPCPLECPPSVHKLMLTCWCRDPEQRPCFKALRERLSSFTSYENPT
Sequence of MAP3K5 (human) (Q99683 whole entry, looked up): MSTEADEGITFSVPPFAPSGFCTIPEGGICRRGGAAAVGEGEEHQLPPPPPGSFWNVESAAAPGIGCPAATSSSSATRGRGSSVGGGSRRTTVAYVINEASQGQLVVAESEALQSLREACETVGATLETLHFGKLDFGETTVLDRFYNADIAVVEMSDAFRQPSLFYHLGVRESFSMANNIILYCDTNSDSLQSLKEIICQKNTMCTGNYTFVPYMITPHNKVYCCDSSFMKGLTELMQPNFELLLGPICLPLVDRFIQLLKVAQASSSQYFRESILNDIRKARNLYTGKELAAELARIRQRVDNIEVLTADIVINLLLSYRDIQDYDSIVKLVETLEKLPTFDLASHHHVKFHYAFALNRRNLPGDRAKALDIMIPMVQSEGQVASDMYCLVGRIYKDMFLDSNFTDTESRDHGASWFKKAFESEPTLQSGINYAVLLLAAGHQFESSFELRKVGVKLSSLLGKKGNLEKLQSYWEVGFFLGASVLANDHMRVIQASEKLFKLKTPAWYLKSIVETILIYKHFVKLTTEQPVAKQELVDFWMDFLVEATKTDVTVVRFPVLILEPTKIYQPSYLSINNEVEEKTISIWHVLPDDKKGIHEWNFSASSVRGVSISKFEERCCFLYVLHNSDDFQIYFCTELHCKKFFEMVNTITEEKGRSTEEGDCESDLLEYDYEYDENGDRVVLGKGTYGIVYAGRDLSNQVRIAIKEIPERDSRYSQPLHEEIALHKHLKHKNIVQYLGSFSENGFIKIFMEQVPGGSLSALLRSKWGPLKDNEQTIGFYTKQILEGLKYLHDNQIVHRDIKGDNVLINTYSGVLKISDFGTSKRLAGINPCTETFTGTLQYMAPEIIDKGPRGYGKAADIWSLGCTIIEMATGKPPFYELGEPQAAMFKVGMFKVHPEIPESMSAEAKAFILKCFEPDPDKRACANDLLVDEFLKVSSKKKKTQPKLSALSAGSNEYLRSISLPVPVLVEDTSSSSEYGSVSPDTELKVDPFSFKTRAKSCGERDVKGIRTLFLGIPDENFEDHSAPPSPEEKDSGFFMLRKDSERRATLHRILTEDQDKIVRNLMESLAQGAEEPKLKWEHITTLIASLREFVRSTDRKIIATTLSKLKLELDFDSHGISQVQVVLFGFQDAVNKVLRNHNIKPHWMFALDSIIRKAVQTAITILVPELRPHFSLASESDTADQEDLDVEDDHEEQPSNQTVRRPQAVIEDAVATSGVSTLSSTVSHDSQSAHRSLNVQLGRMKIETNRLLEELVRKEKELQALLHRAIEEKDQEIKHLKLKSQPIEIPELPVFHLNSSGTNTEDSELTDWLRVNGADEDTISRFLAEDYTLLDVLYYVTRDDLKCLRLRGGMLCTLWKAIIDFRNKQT
Sequence of PAK2 (human), Q13177 [T402E] (Q13177 whole entry T402E, looked up): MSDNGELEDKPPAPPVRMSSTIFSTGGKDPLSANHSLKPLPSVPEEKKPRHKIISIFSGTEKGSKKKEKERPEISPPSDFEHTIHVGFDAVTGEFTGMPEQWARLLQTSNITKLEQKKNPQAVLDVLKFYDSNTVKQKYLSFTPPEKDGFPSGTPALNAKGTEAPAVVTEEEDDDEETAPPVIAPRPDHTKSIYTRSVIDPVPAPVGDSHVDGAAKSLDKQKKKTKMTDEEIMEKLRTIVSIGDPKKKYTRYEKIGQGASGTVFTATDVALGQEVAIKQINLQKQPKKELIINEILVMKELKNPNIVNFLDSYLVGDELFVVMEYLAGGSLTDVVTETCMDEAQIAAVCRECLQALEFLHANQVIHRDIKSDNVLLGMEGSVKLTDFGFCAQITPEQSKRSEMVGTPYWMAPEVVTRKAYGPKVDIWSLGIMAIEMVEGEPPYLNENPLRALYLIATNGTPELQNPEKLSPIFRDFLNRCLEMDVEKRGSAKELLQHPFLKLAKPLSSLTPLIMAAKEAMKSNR

Broadly, the residual activity is the signal under treatment as a percentage of the control signal. Turning to `Oc1ccc2c(c1)C(O)c1cc(O)ccc1-2`, the residual activity in [1] (compound 20.0 µM) came out at 85%.

In the case of `Oc1ccc2c(c1)oc1c3ccccc3c(O)cc21`, the residual activity in experiment [2] came to 87%; in experiment [3] it was 103%; in experiment [4], 85%; in experiment [5], 85%; in experiment [6], 98%; in experiment [7], 71%. Besides, the residual activity was 112% in experiment [8]; 40% in experiment [9]; 99% in experiment [10]; 31% in experiment [11]; 84% in experiment [12]; 78% in experiment [13]. In addition, the residual activity turned out to be 73% in experiment [14]; 95% in experiment [15]; 105% in experiment [1] (compound 1.0 µM); 87% in experiment [16]; 87% in experiment [17]; 77% in experiment [18]. Moreover, the residual activity worked out at 117% in experiment [19]; 74% in [20]; 102% in experiment [21]; 100% in experiment [22]; 75% in experiment [23]; 87% in experiment [24]. Further, the residual activity in experiment [25] turned out to be 63%; in experiment [26] it was 60%; in [27] it was 107%; in experiment [28], 99%; in experiment [29], 65%; in [30] it was 103%. Besides, the residual activity in experiment [31] was determined as 107%; in experiment [32], 105%; in experiment [33] it was 87%.

For `COc1ccc2c(c1)[nH]c1c(C)nccc12`, the residual activity worked out at 80% in [2]; 112% in experiment [3]; 97% in experiment [4]; 92% in experiment [5]; 100% in [6]; 95% in experiment [7]. The residual activity in [8] stood at 112%; in experiment [9], 78%; in experiment [10] it was 89%; in [11] it was 95%; in experiment [12] it was 105%; in experiment [13] it was 93%. Further, the residual activity is 83% in experiment [14]; 88% in [15]; 95% in [16]; 99% and 115% in experiment [34]; 89% in [17]; 92% in experiment [18]. The residual activity in experiment [19] was 92%; in [35], 2%; in experiment [20], 119%; in experiment [21] it was 99%; in [22], 97%; in [23] it was 59%. Besides, the residual activity was 111% in experiment [24]; 118% in experiment [25]; 69% in experiment [26]; 103% in [27]; 111% in [28]; 68% in experiment [29]. Also, the residual activity in experiment [30] amounted to 93%; in experiment [31], 104%; in experiment [32] it was 81%; in [33], 101%.

Values taken from the kinase profiling compilation of Christmann-Franck et al. (2016).
